ChEMBL document CHEMBL5727761, “1-cyano-pyrrolidine compounds as USP30 inhibitors” (2020)

Molecular target: T1, Ubiquitin carboxyl-terminal hydrolase 30 (Homo sapiens, UniProt Q70CQ3)
T1 sequence (Q70CQ3 whole entry): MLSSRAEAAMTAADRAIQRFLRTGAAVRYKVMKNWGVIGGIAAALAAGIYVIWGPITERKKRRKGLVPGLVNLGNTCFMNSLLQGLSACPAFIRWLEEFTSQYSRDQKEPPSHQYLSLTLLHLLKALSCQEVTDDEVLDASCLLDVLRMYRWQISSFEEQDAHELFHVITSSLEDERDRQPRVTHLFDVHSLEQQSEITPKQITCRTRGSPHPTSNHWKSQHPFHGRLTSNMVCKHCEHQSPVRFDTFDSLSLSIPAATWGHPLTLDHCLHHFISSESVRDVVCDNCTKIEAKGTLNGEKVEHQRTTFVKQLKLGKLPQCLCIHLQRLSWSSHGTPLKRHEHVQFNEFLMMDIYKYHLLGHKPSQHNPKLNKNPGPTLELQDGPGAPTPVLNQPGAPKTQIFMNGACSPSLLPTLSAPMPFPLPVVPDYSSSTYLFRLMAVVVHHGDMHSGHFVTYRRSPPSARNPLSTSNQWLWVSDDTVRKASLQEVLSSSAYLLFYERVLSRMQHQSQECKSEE
Test: Biochemical Fluorescence Intensity Kinetic Assay/Biochemical Fluorescence Intensity Assay: USP30 Biochemical Fluorescence Intensity Kinetic Assay.Reactions were performed in duplicate in black 384 well plates (small volume, Greiner 784076) in a final reaction volume of 21 μl. USP30 CD (Boston Biochem E-582 or 57-517, #64-0057-050 Ubiquigent) was diluted in reaction buffer (40 mM Tris, pH 7.5, 0.005% Tween 20, 0.5 mg/ml BSA, 5 mM beta-mercaptoethanol) to the equivalent of 0, 0.0005, 0.001, 0.005, and 0.01 μl/well. Buffer was optimised for optimal temperature, pH, reducing agent, salts, time of incubation, and detergent. Reactions were initiated by the addition of Ubiquitin-Rhodamine 110 (U-555, Boston Biochem) at a final concentration of 100 nM. Reactions were incubated at room temperature and read every 2 min for 120 min. Readings were performed on a Pherastar Plus (BMG Labtech). […] A typical 8-point dilution series would be 100, 30, 10, 3, 1, 0.3, 0.1, 0.03 μM final. Reactions were performed in duplicate in black 384 well plates (small volume, Greiner 784076) in a final reaction volume of 21 μl. Either 1 μl of 50% DMSO or diluted compound was added to the plate. USP30 was diluted in reaction buffer (40 mM Tris, pH 7.5, 0.005% Tween 20, 0.5 mg/ml BSA, 5 mM beta-mercaptoethanol) to the equivalent of 0.001 μl/well and 10 μl of diluted USP30 was added to the compound. […]

Row | IC50 | Compound
1 | in the range around 5.5 µM | N#CN1C[C@H]2CCN(C(=O)N3CCc4ccccc43)[C@H]2C1
2 | in the range around 0.55 µM | N#CN1CC[C@@H](NC(=O)c2ccc(N3CCOCC3)cc2)C1
